Reference: patent US12195512B2, “Affinity ligands for antibody Fc region” (Univerza v Ljubljani, priority 2018, dated 2025)
One block for each substance: values may come before it. No end group written: not given here.

Legend:
[1] = tested on: human IgG Fc fragment; experiment: phage ELISA of phage-displayed peptides on human Fc fragment; assay type: binding; details: peptide displayed on phage; absorbance at 450 nm
Excerpt: Three different phage display libraries were subjected to separate panning processes according to the protocol known to one skilled in the art. Various Fc-binding peptides were selected by targeting biotin-conjugated human Fc fragment prepared by random biotinylation of amine residues using EZ-Link™ Sulfo-NHS-SS-Biotin (Thermo Fisher Scientific, Rockford, IL, USA). After three rounds of affinity selection, individual clones were picked for phage Enzyme Linked Immuno-Sorbent Assay (ELISA) in order to evaluate their Fc fragment binding ability.
(§1) Wells of a 96-well microplate (Nunc, Maxisorp) were either coated with human Fc fragment solution or streptavidin as negative control. The wells were blocked with BSA and contacted with amplified population of each individual clone. Bound phages were detected by the addition of horseradish peroxidase (HRP)-conjugated anti-M13 monoclonal antibodies using the chromogenic substrate (3,3′,5,5′-tetramethylbenzidine (TMB)) solution, and absorbance at 450 nm was measured.
The experiment was performed in triplicate.
In order to investigate the contribution of individual amino acid residues of the truncated peptide SEQ ID NO: 2 to the Fc binding, alanine scanning strategy was carried out. […] However, we determined specific positions where alanine substitutions were well tolerated in terms of preserving binding activity. […]

[2] = tested on: human IgG Fc fragment; experiment: competitive phage FLISA with Staphylococcal protein A; assay type: binding
Procedure: SpA is known to interact specifically with the region at the CH2-CH3 interface of immunoglobulins. Wells of the black Nunc MaxiSorp microtiter plate were either coated with human IgG Fc fragment or left uncoated (controls). Wells were blocked with BSA and contacted with purified fluorescein-labelled phage clone (the labelling procedure was adapted from the instructions of FITC manufacturer, Sigma-Aldrich). Phage was allowed to compete for the Fc binding with SpA in concentrations 1 μM, 100 nM or 10 nM. After 1 h-incubation at room temperature, the content was discarded and wells were washed with 0.1% PBST and finally filled with PBS. Fluorescence intensities in individual wells were measured at 510 nm upon excitation at 485 nm. The experiment was performed in triplicate.

[3] = tested on: human IgG subclasses (IgG1, IgG2, IgG3 and IgG4) and human intravenous immunoglobulins; experiment: assay akin to ELISA with (peptide)4 SA-HRP complexes on human IgGs; assay type: binding; details: for binding of biotinylated synthetic peptides to human IgGs: C-terminal linker SEQ ID NO: 181 biotinylated, tetrameric (peptide)4 SA-HRP complexes; for binding compared with the parental peptide SEQ ID NO: 2: biotinylated synthetic peptides, (peptide)4 SA-HRP complexes, human IgGs
Procedure: (§2) The binding activity of the described biotinylated synthetic peptides to different immunoglobulins was evaluated using an assay akin to ELISA. Wells were coated with the different subclasses of human IgGs or human intravenous immunoglobulins. All the wells were blocked with BSA. A biotinylated synthetic peptide and horseradish peroxidase (HRP)-conjugated streptavidin (SA-HRP) were mixed in advance at molar ratio of 4:1 to formulate tetrameric (peptide)4 SA-HRP complexes and then the mixtures were added to individual wells. After washing, the (peptide)4 SA-HRP complexes were detected with TMB solution.

[4] = tested on: human IgG Fc fragment and native human IgGs; experiment: pull-down assay with peptide-coated streptavidin paramagnetic beads; details: versus parent peptide SEQ ID NO: 2
Procedure: Selected peptides (SEQ ID NO: 2, SEQ ID NO: 30, and SEQ ID NO: 26) with biotin attached via epsilon-amino group of C-terminal amidated lysine in added linker SEQ ID NO: 181 were synthesized and coupled to streptavidin-coated paramagnetic beads. The same paramagnetic beads without addition of peptide and the same paramagnetic beads coupled with unrelated biotinylated peptide SEQ. ID 185 were used as negative controls. First, the Fc fragment of human antibodies (2 μg) was spiked into PBS and incubated with peptide-coated paramagnetic beads. The beads were then pelleted, washed with 0.1% PBST, and the bound material was eluted with acidic buffer (0.2 M glycine/HCl, pH 2.2). The low pH eluate was immediately neutralized with 1M Tris/HCl, pH 9.1. The eluates obtained from pull-down assay were analyzed by DotBlot assay and Western blotting using polyclonal goat anti-human IgG (H+L) HRP conjugate for detection (results not shown). Equivalent pull-down assay was carried out also from serum free DMEM growth medium spiked with human Fc fragment (2 μg) with peptide SEQ ID NO: 2 (FIG. 11). Additionally, the pull-down assay was also made from intact human sera. The presence of human IgGs in the eluate was confirmed by Coomassie blue staining (FIG. 13) and Western blot analysis (FIG. 12) using HRP-conjugated goat anti-human (H+L) antibodies (BioRad).

[5] = tested on: human IgGs of different subclasses (IgG1, IgG2, IgG3 and IgG4); experiment: phage ELISA on subclasses of native human IgGs; assay type: binding; details: peptide displayed on phage as P3 fusion
Procedure: as §1
(§3) The binding activity of phage clone displaying the minimized peptide SEQ ID NO: 2, was further evaluated by phage ELISA (as described above) using different subclasses of native human IgGs and different therapeutic monoclonal antibodies. BSA, avidin and SA were used as targets in negative control wells.

[6] = tested on: therapeutic monoclonal antibodies; experiment: phage ELISA on therapeutic monoclonal antibodies; assay type: binding; details: peptide displayed on phage as P3 fusion
Procedure: as §1, §3

[7] = tested on: BSA, avidin and SA; experiment: phage ELISA on negative control targets; assay type: binding; details: peptide displayed on phage
Procedure: as §1, §3

[8] = tested on: IgGs of different species (mouse, donkey, rabbit and sheep); experiment: assay akin to ELISA with peptide SA-HRP complexes on IgGs of animal species; assay type: binding; details: biotinylated synthetic peptide complexed to SA-HRP, sheep IgG
Procedure: as §2
Additionally, the binding activity of the synthetic peptide SEQ ID NO: 2 to immunoglobulins of different animal species (mouse, rabbit, donkey, and sheep) was evaluated by an assay akin to ELISA essentially as described above. Peptides SEQ ID NO: 184 and SEQ ID NO: 185 represent two control biotin-labelled synthetic peptides with unrelated amino acids sequences.

[9] = tested on: human Fc fragment; experiment: surface plasmon resonance (BIAcore X100), peptide immobilized via streptavidin; assay type: binding; details: 25° C; Fc 10-160 nM, single cycle
Procedure: Interaction between the synthetic biotinylated peptide ligand with amino acid sequence identical to SEQ ID NO: 2 and human Fc fragment was analyzed by surface plasmon resonance (SPR) using BIAcoreX100 (BIAcore) at 25° C. Biotinylated synthetic peptide of the present invention was immobilized to the matrix indirectly through streptavidin. Streptavidin (SA) was immobilized to the surface of CM-5 chip through random amine coupling according to the manufacturer's recommendations to achieve a stable response corresponding to approximately 4000 resonance units. The first cell surface was prior activated and deactivated and used as a reference cell during injections. After successful covalent immobilization of SA to dextran matrix via amino groups, a 120 nM solution (pH 5) of biotinylated synthetic peptide SEQ ID NO: 2 was injected over a sensor chip SA to immobilize the peptide onto the chip. The amount of immobilized peptide was adjusted to the stable response corresponding to approximately 200 RU. Subsequently, solutions of human Fc fragment (the analyte) of various concentrations (10 nM, 20 nM, 40 nM, 80 nM, and 160 nM) in running buffer (0.005% P20 in PBS) were injected at a flow rate of 10 μL/min at through flow cells in a manner known as single cycle. Binding reaction between human Fc fragment and the peptide was recorded. […]

binding of biotinylated synthetic peptides to human IgGs [3]: specifically bound to human IgGs
binding compared with the parental peptide SEQ ID NO: 2 [3]: significantly increased binding
Substance: GSYWYDVWF (not fully specified (C-terminus)) [SEQ ID NO: 26]
trapping efficiency in pull-down assay [4]: significantly higher than the parent peptide SEQ ID NO: 2

binding of biotinylated synthetic peptides to human IgGs [3]: specifically bound to human IgGs
binding compared with the parental peptide SEQ ID NO: 2 [3]: significantly increased binding
Substance: GSYWYEVWF (not fully specified (C-terminus)) [SEQ ID NO: 30]

binding to human IgG subclasses (phage ELISA) [5]: strongly bound
binding to tested therapeutic monoclonal antibodies (phage ELISA) [6]: strongly bound
binding to negative controls (phage ELISA) [7]: no significant binding
binding of biotinylated synthetic peptides to human IgGs [3]: specifically bound to human IgGs
binding to IgGs of different animal species [8]: specifically bound
binding of human Fc to immobilized peptide (SPR) [9]: exhibited binding to human Fc
Substance: GSYWYQVWF (H-GSYWYQVWF; not fully specified (C-terminus)) [SEQ ID NO: 2]
dissociation rate (SPR) [9]: slow

The next lines start with the substance.

Substance: AGNGSYWYQVWF [SEQ ID NO: 1]
relative binding of phage clones to human IgG Fc (phage ELISA) [1]: strongest binding phage clone
binding site on Fc fragment relative to SpA ([2]; inferred from competition with SpA): at least partially overlap

Substance: SpA: Staphylococcal protein A; cell wall constituent protein derived from Staphylococcal aureus [reference compound]
inhibition of binding of FITC-labelled phage clone SEQ ID NO: 1 to immobilized human IgG Fc ([2]; SpA 1 μM, 100 nM or 10 nM, 1 h room temperature): the higher the concentration of SpA added, the more effectively is binding of the phage clone to human IgG Fc fragment inhibited
